According to paper PMC6888270 (International Journal of Molecular Sciences, 2019):
Square brackets hold non-standard residues; d marks the D form. Peptide text beside a SMILES is read from it. d(hArg(Et2)) = CCN=C(NCC)NCCCC[C@@H](N)C(=O)O; hArg(Et2) = CCN=C(NCC)NCCCC[C@H](N)C(=O)O; dPhe(4-Cl) = N[C@H](Cc1ccc(Cl)cc1)C(=O)O; d2Nal = N[C@H](Cc1ccc2ccccc2c1)C(=O)O; dCit = NC(=O)NCCC[C@@H](N)C(=O)O; d3Pal = N[C@H](Cc1cccnc1)C(=O)O

How the values were obtained:
β-catenin activation = test: Immunofluorescence of active β-catenin in HEK293/GnRHR cells; format: cell-based, human; conditions: 1 µM GnRH + 1 µM antagonist, 1 h
Description: In order to evaluate the activation of phospho-proteins and β-catenin by Western blotting and immunofluorescence, 1 × 10^5 HEK293 cells were transiently transfected in a 24-well plate. To this purpose, 500 ng of GnRHR-HA-encoding vector diluted in 2 µL/well Lipofectamine® 2000 Transfection Reagent (Invitrogen) were used, according to the manufacturer’s instructions. Transfected HEK293 cells (HEK293/GnRHR) were cultured for 48 h and maintained over-night in serum-free medium before experiments.
3 × 10^4 HEK293/GnRHR and mock-transfected HEK293 cells (negative control) were plated on gelatine-treated slides. […] As a positive control, cells were treated for 16 h with 100 nM of the selective glycogen synthase kinase 3 (GSK3) inhibitor, CHIR99021 (Sigma-Aldrich), which stabilizes free cytosolic β-catenin [68]. After stimulations, cells were washed in PBS with Ca^2+/Mg^2+ and fixed for 20 min in paraformaldehyde 4%/PBS. Cell monolayers were washed by PBS and permeabilized using 0.1% Triton X-100. Samples were incubated in 4% bovine serum albumin (BSA)/PBS, for 1 h at room temperature (RT), before incubation with a mouse primary antibody targeting β-catenin (#05-665, 1:300 dilution in 4% BSA/PBS; Merck KGaA) overnight at 4 °C. Following washing, cells were then incubated with Cy3-conjugated anti-mouse IgG secondary antibody (#C2181, 1:200 dilution in 4% BSA/PBS; Sigma-Aldrich) for 1 h at RT. Cell monolayers were then stained for 10 min with 4′,6-diamidino-2-phenylindole (DAPI) (Sigma-Aldrich) and washed in PBS before slide treatment by polyvinyl alcohol mounting medium with 1,4-diazabicyclo[2.2.2]octane (DABCO®) (Sigma-Aldrich). Fluorescent signals were detected using the Eclipse Ni-E microscope (Nikon Instruments BV, Amsterdam, The Netherlands).

GnRH receptor (GnRHR) = molecular target: T1, GnRH receptor (GnRHR) (Homo sapiens, UniProt P30968); test: BRET measurement of GnRH-induced intracellular Ca2+ increase in HEK293/GnRHR cells; format: cell-based; parameters: HA (hemagglutinin); expressed in transfected cells; host or cells: HEK293 (transient co-transfection with BRET biosensor); conditions: means ± SEM, n = 6
T1 sequence (P30968 1-328): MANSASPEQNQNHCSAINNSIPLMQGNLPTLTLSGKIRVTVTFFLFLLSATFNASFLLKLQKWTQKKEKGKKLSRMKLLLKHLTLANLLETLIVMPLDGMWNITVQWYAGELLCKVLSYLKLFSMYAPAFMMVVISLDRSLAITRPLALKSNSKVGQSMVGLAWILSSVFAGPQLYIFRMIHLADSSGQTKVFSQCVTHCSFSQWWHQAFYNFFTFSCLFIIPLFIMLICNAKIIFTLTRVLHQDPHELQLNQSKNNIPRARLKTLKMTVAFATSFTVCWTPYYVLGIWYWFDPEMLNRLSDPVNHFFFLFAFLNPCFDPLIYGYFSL
Description: Different transfection protocols were followed, depending on the endpoint to be measured. For BRET experiments, 3 × 10^4 cells were transiently transfected using vectors expressing the cAMP-CAMYEL or the aequorin-Ca^2+ BRET biosensor-encoding cDNA [59], as appropriate, together with the GnRHR-HA-encoding vector. Transfections were performed in a 96-well plate using the Metafectene PRO reagent (Biontex, München, Germany), as previously described. 100 ng of the receptor-encoding vector + 100 ng of the BRET biosensor-encoding vector were used for co-transfecting HEK293 cells, while SH-SY5Y cells were co-transfected using 200 ng of the receptor-encoding vector + 100 ng of the BRET biosensor-encoding vector. 200 ng of the aequorin-Ca^2+ BRET biosensor-encoding cDNA were used for transfecting LβT2 cells. Each sample was prepared in duplicate, cultured for 48 h and serum-starved over-night before experiments.
To evaluate Ca^2+ increase, cells were incubated in Hank’s Balanced Salt Solution (HBSS) with Ca^2+ and Mg^2+, 1 mM Hepes and 5 µM Coelenterazine H (NanoLight Technologies, a division of Prolume, Ltd., Pinetop, AZ, USA), for 45 minutes, together with Cetrorelix, Ganirelix, Teverelix or vehicle, as appropriate. […] The EC50 was extrapolated from the curve obtained from each cell line. Cells treated by 5 µM of the sarco/endoplasmic reticulum Ca^2+ ATPase enzyme inhibitor, thapsigargin (Tocris Bioscience), served as positive control. Treatment by the vehicle (HBSS) was the negative control and used as a normalizer.
BRET experiments were performed using a CLARIOstar plate reader equipped by a monocromator (BMG Labtech, Ortenberg, Germany), as previously described.
Data were plotted on graphs as means ± standard error of means (SEM). The kinetics of intracellular Ca^2+ increase was represented by the BRET biosensor emission after background subtraction (vehicle). […] Data distributions were analyzed by D’Agostino and Pearson normality tests and inhibition of intracellular Ca^2+ increase by different concentrations of antagonist were compared using two-way analysis of variance (ANOVA), followed by Bonferroni post-test or Kruskal-Wallis and proper post-test. cAMP accumulation was represented as acceptor:donor emission ratio (induced BRET changes) after basal subtraction (untreated cells). Dose-response curves were obtained by data interpolation using non-linear regressions and normalized as percentage of the maximal response. EC50s, as well as half-maximal inhibitory concentrations (IC50), were compared by t-test or Mann–Whitney U test, while results obtained by Western blotting and qRT-PCR data were compared by one-way ANOVA followed by Bonferroni post-test. Statistical differences were considered as significant for p < 0.05. These analyses were performed using the GraphPad Prism software (GraphPad Software Inc., San Diego, CA, USA).

[1] = 3 × EC50 GnRH + 1 pM antagonist
[2] = 3 × EC50 GnRH + 10 pM antagonist
[3] = 3 × EC50 GnRH + 100 pM antagonist
[4] = 3 × EC50 GnRH + 1 nM antagonist
[5] = 3 × EC50 GnRH + 75 nM antagonist
[6] = 3 × EC50 GnRH + 100 nM antagonist
[7] = 3 × EC50 GnRH + 1 µM antagonist

For `CC(=O)N[C@H](Cc1ccc2ccccc2c1)C(=O)N[C@H](Cc1ccc(Cl)cc1)C(=O)N[C@H](Cc1cccnc1)C(=O)N[C@@H](CO)C(=O)N[C@@H](Cc1ccc(O)cc1)C(=O)N[C@H](CCCNC(N)=O)C(=O)N[C@@H](CC(C)C)C(=O)N[C@@H](CCCNC(=N)N)C(=O)N1CCC[C@H]1C(=O)N[C@H](C)C(N)=O` [Cetrorelix] (Ac-[d2Nal][dPhe(4-Cl)][d3Pal]SY[dCit]LRP[dA]-NH2), the “effect on GnRH-induced active β-catenin staining” value (β-catenin activation) was “reduced”, the “AUC of the kinetics of intracellular Ca2+ response” value (from here on “AUC”) (GnRH receptor (GnRHR); [1]) was 78,113 ± 29,979 and the “AUC” value (GnRH receptor (GnRHR); [2]) was 124,981 ± 33,684. The “AUC” value (GnRH receptor (GnRHR); [3]) was 126,243 ± 34,982, the “AUC” value (GnRH receptor (GnRHR); [4]) was 71,127 ± 25,268 and the “AUC” value (GnRH receptor (GnRHR); [5]) was 18,632 ± 4423. For the same compound, the “AUC” value (GnRH receptor (GnRHR); [6]) was 8946 ± 3296 and the “AUC” value (GnRH receptor (GnRHR); [7]) was 3264 ± 3024.

In the case of `CCN=C(NCC)NCCCC[C@H](NC(=O)[C@H](CC(C)C)NC(=O)[C@@H](CCCCNC(=NCC)NCC)NC(=O)[C@H](Cc1ccc(O)cc1)NC(=O)[C@H](CO)NC(=O)[C@@H](Cc1cccnc1)NC(=O)[C@@H](Cc1ccc(Cl)cc1)NC(=O)[C@@H](Cc1ccc2ccccc2c1)NC(C)=O)C(=O)N1CCC[C@H]1C(=O)N[C@H](C)C(N)=O` [Ganirelix] (Ac-[d2Nal][dPhe(4-Cl)][d3Pal]SY[d(hArg(Et2))]L[hArg(Et2)]P[dA]-NH2; N-terminus and C-terminus assumed), the “effect on GnRH-induced active β-catenin staining” value (β-catenin activation) is reported as “reduced”, the “AUC” value (GnRH receptor (GnRHR); [1]) is reported as 76,189 ± 18,564 and the “AUC” value (GnRH receptor (GnRHR); [2]) is reported as 91,896 ± 21,766. The “AUC” value (GnRH receptor (GnRHR); [3]) was 101,943 ± 27,388, the “AUC” value (GnRH receptor (GnRHR); [4]) was 66,665 ± 16,035 and the “AUC” value (GnRH receptor (GnRHR); 3 × EC50 GnRH + 10 nM antagonist) was 73,164 ± 16,237. For the same compound, the “AUC” value (GnRH receptor (GnRHR); [5]) was 43,870 ± 4193, the “AUC” value (GnRH receptor (GnRHR); [6]) was 34,734 ± 13,731 and the “AUC” value (GnRH receptor (GnRHR); [7]) was 3346 ± 2977.
